# Patent US11607557B2, “Devices and systems for treating pain based on light therapy” (Arizona Board of Regents on Behalf of the University of …, priority 2016, dated 2023)
# “Also recorded” adds a separate entry of the source.
# Experiments:
# [1] = tested on: green LED-induced antinociception; assay: Paw withdrawal latency (Hargreaves) after antagonists in green LED exposed naïve rats; format: in vivo, rat
# Description: Pathogen-free, adult male and female Sprague-Dawley as well as male Long Evans rats (weight at testing 250-350 g; Harlan-Sprague-Dawley, Indianapolis, Ind.) were housed in a climate-controlled room on a 12-h light/dark cycle and were allowed to have food and water ad libitum. All procedures were approved by the University of Arizona Animal Care and Use Committee and conform to the guidelines for the use of laboratory animals of the National Institutes of Health (publication no, 80-23, 1966). All behavioral experiments were conducted by experimenters blinded to the treatment conditions.
# All visible spectrum LED flex strips were purchased from ledsupply.com (VT, USA). The specification of the LED were: (i) #LS-AC60-6-BL, 472 nanometer wavelength (i.e., blue), 8 watts, 120 Volts, 120 degree beam angle; (ii) #LS-AC60-6-GR, 525 nanometer wavelength (i.e., green), 8 watts, 120 Volts, 120 degree beam angle; and (iii) #LS-AC60-66-WH, white, 9.6 watts, 120 Volts, 120 degree beam angle. LED strips were affixed to the outside of clear plastic cages that housed the rats so as to avoid the strips from being chewed. Rats were exposed to the various LED in these cages with full access to food and water in a dark room devoid of any other source of light. Following behavioral assessment, the rats were returned to their cages for additional LED exposure. At the end of daily testing, the rats were returned to their regular animal room where they were exposed to regular room light (regular florescent bulbs). A lux meter (Tondaj LX1010B, Amazon.com) was used to determine the illuminance and luminous emittance of the LED strips.
# (§1) The method of Hargreaves et al. was used. Rats were acclimated within Plexiglas enclosures on a clear glass plate maintained at 30° C. A radiant heat source (high-intensity projector lamp) was focused onto the plantar surface of the hind paw. When the paw was withdrawn, a motion detector halted the stimulus and a timer. A maximal cutoff of 33.5 sec was used to prevent tissue damage.
# For intrathecal drug administration, rats were chronically implanted with catheters as described by Yaksh and Rudy. Rats were anesthetized with isoflurane and placed in a stereotactic device. The occipital muscles were separated from their occipital insertion and retracted caudally to expose the cisternal membrane at the base of the skull. Polyethylene tubing was passed caudally from the cisterna magna to the level of the lumbar enlargement. Animals were allowed to recover and were examined for evidence of neurologic injury. Animals with evidence of neuromuscular deficits were excluded.
# The antinociceptive effects of green LED indicates a possible involvement of endogenous mediators linked to pain, such as opioids and cannabinoids. To test this hypothesis naïve rats exposed to green LED for eight hours daily for five days were administered antagonists and then PWLs were measured 20-30 minutes later.
# Thus, to elucidate the role of die adrenergic system, several adrenergic receptors antagonists were tested. […] Additionally, rats exposed to green LED maintained regular grooming behaviors, which is in contrast to diminished grooming observed in stressed rats.
# [2] = calcium indicator, λex 340, 380 nm; cited from earlier work
# [3] = tested on: rostral ventromedial medulla (RVM); assay: Lidocaine microinjection into the RVM, paw withdrawal latency in green LED exposed rats; format: in vivo, rat; conditions: 2% lidocaine microinjected into the RVM of naïve rats exposed to green LED
# Experimental: as §1
# Rats received a bilateral guide cannula (26 GA, #C235-1.2 mm, Plastics One Inc.) directed to the RVM. The cannula was placed at: −11.0 from bregma, −7.5 mm from the dura and 0.6 mm on either side of the midline. Injections were made by expelling 0.5 μl through an injection cannula protruding 1 mm beyond the tip of the guide. Cannula placement was confirmed with 0.5 μl Evans Blue injected into both sides of the cannula and microscopic examination of medullary sections. Acute single injections into the RVM were performed by inserting an injector (Plastics One Inc) attached to a 2 μl Hamilton syringe and expelling 0.5 μl at the same coordinates.
# Neurons within the rostral ventromedial medulla (RVM) have been reported to project to the spinal or medullary dorsal horns to directly or indirectly enhance or diminish nociceptive traffic. As this descending modulatory circuit is “opioid-sensitive”, next the contribution of the RVM in the green LED-induced antinociceptive response was examined.
# rats [4] = assay: HIV sensory neuropathy model, mechanical allodynia (von Frey test); format: in vivo, rat; conditions: intrathecal gp120, 300 ng, compared to pre-gp120 baseline
# Experimental: The assessment of tactile allodynia (i.e., a decreased threshold to paw withdrawal after probing with normally innocuous mechanical stimuli) consisted of testing the withdrawal threshold of the paw in response to probing with a series of calibrated fine (von Frey) filaments. Each filament was applied perpendicularly to the plantar surface of the paw of rats held in suspended wire mesh cages. Withdrawal threshold was determined by sequentially increasing and decreasing the stimulus strength (the “up and down” method), and data were analyzed with the nonparametric method of Dixon, as described by Chaplan et al and expressed as the mean withdrawal threshold.
# (§2) Thermal hyperalgesia and mechanical allodynia are produced by intrathecal administration of the human immunodeficiency virus-1 (HIV-1) envelope glycoprotein, gp120 [60]. Seven days after implantation of an intrathecal catheter, baseline behavioral measurements were obtained and then rats were randomly assigned to two groups. On days 10 and 13, one group of rats were injected i.t. with 300 ng gp120 in a final volume of 20 µl in 0.9% saline while the other group were injected in a similar fashion with 0.9% saline.
# rats [5] = assay: HIV sensory neuropathy model, thermal hyperalgesia (Hargreaves test); format: in vivo, rat; conditions: intrathecal gp120, 300 ng
# Experimental: as §1, §2
# [6] = cannabinoid receptor antagonists, systemic (i.p.) 1 mg/kg, green LED eight hours daily for five days, 1 mg/kg
# [7] = intrathecal (i.t.), 20 μg, green LED eight hours daily for five days, PWL 20-30 minutes after antagonist
# [8] = alpha- and beta-adrenergic receptor antagonists, i.p. (doses in Table 1), green LED exposed rats
molecule,measurement,setting,value
Cc1c(C(=O)NN2CCCCC2)nn(-c2ccc(Cl)cc2Cl)c1-c1ccc(I)cc1 [AM251],effect on green LED-induced antinociception (paw withdrawal latency),[1]; [6],reversed the green LED-induced antinociception; also recorded: reversed green LED-induced thermal analgesia
COc1ccc(C(=O)c2c(C)n(CCN3CCOCC3)c3cc(I)ccc23)cc1 [AM630],effect on green LED-induced antinociception (paw withdrawal latency),[1]; [6],unaffected
CC(=O)OCOC(=O)CN(CC(=O)OCOC(C)=O)c1ccc(C)cc1OCCOc1cc2cc(-c3ncc(C(=O)OCOC(C)=O)o3)oc2cc1N(CC(=O)OCOC(C)=O)CC(=O)OCOC(C)=O [Fura-2AM],Kd,[2],25 µM
C=CCN1CC[C@]23c4c5ccc(O)c4O[C@H]2C(=O)CC[C@@]3(O)[C@H]1C5 [Naloxone],effect on green LED-induced antinociception (paw withdrawal latency),[1]; [7],"reversed, to baseline levels"
same,effect on green LED-induced antinociception (paw withdrawal latency),"[1]; intrathecal (i.t.), 20 μg, green LED eight hours daily for five days, PWL 20-30 minutes after antagonist, listed as naloxone",reversed green LED-induced thermal analgesia
same,effect on green LED-induced antinociception (paw withdrawal latency),"[1]; naloxone systemic (printed subcutaneous / 20 mg/kg i.p.), green LED eight hours daily for five days, PWL 20-30 minutes after antagonist, 20 mg/kg","reversed, to baseline levels"
same,effect on green LED-induced antinociception (paw withdrawal latency),"[1]; naloxone systemic (printed subcutaneous / 20 mg/kg i.p.), green LED eight hours daily for five days, PWL 20-30 minutes after antagonist, listed as naloxone, 20 mg/kg",reversed green LED-induced thermal analgesia
CC(COc1ccccc1)N(CCCl)Cc1ccccc1 (centres unmarked) [Phenoxybenzamine],effect on green LED-induced antinociception (paw withdrawal latency),[1]; [8],failed to prevent or reverse the antinociceptive effect of green LED; also recorded: failed to reverse green LED-induced thermal analgesia
Cc1ccc(N(CC2=NCCN2)c2cccc(O)c2)cc1 [Phentolamine],effect on green LED-induced antinociception (paw withdrawal latency),[1]; [8],failed to prevent or reverse the antinociceptive effect of green LED; also recorded: failed to reverse green LED-induced thermal analgesia
CCN(CC)CC(=O)Nc1c(C)cccc1C [lidocaine],effect on green LED-induced antinociception (paw withdrawal latency),[3],prevented the subsequent development of antinociception; also recorded: reversed green LED-induced thermal analgesia
CN1CC[C@]23c4c5ccc(O)c4O[C@H]2[C@@H](O)C=C[C@H]3[C@H]1C5 [morphine],effect on green LED-induced antinociception (paw withdrawal latency),[1]; [7],reversed the antinociception
CC(C)NCC(O)COc1cccc2ccccc12 (centres unmarked) [propranolol],effect on green LED-induced antinociception (paw withdrawal latency),[1]; [8],failed to prevent or reverse the antinociceptive effect of green LED; also recorded: failed to reverse green LED-induced thermal analgesia
"gp120: viral envelope glycoprotein 120 of HIV-1, recombinant HIV-1 IIIB gp120, NIH AIDS Reagent Program",mechanical allodynia (paw withdrawal threshold),rats [4],lowered thresholds for paw withdrawals compared to baseline
same,thermal hyperalgesia (paw withdrawal latency),rats [5],produced a thermal hyperalgesia
